Assay results as given in US10689339B2, “Pyrrolidine derivatives” (Hoffmann-La Roche Inc., priority 2016, dated 2020).

These compounds were tested against human Cat S (Homo sapiens (Human), UniProt P25774) (assay: Cathepsin enzyme inhibition assay (fluorogenic peptide substrate Z-Val-Val-Arg-AMC)). Conditions: enzyme 1 nM, substrate 20 μM, pH 6.5.
Assay type: biochemical
Experimental: Cathepsin Enzyme Inhibition Assay
Enzyme activity is measured by observing the increase in fluorescence intensity caused by cleavage of a peptide substrate containing a fluorophore whose emission is quenched in the intact peptide.
Assay buffer: 100 mM potassium phosphate pH 6.5, EDTA-Na 5 mM, Triton X-100 0.001%, DTT 5 mM.
Enzymes (all at 1 nM): human and mouse Cathepsin S, Cat K, Cat B, Cat L.
Substrate (20 μM): Z-Val-Val-Arg-AMC, except for Cat K which uses Z-Leu-Arg-AMC (both from Bachem).
AMC=7-Amino-4-Methyl-Coumarin.
Excitation 360 nm, Emission 465 nm.
Enzyme is added to the substance dilutions in 96-well microtitre plates and the reaction is started with substrate. […] IC50 are calculated by standard methods.
Inhibition of human Cat S, mouse Cat S, human Cat K, human Cat B, human Cat L and mouse Cat L have been measured separately.

human Cat S, sequence (P25774 115-331): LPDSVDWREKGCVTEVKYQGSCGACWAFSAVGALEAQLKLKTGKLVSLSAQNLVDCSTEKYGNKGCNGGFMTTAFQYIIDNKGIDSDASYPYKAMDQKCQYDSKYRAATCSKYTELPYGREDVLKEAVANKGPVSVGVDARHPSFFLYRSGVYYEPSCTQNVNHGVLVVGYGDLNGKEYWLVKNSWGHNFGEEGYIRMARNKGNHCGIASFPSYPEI

| IC50 | Structure (SMILES) |
| --- | --- |
| 955 pM | Cc1cc(-c2cc(C(F)(F)F)nn2C)ccc1S(=O)(=O)[C@@H]1C[C@@H](C(=O)NC2(C#N)CC2)N(C(=O)C2(C(F)(F)F)CC2)C1 [Example 32, (2S,4R)—N-(1-cyanocyclopropyl)-4-(2-methyl-4-(1-methyl-3-(trifluoromethyl)-1H-pyrazol-5-yl)phenylsulfonyl)-1-(1-(trifluoromethyl)cyclopropanecarbonyl) pyrrolidine-2-carboxamide] |
| 3270 pM | Cc1nncn1-c1ccc(S(=O)(=O)[C@@H]2C[C@@H](C(=O)NC3(C#N)CC3)N(C(=O)C3(C(F)(F)F)CC3)C2)c(C(F)(F)F)c1 [Example 25, (2S,4R)-4-[4-(3-Methyl-[1,2,4]triazol-4-yl)-2-trifluoromethyl-benzenesulfonyl]-1-(1-trifluoromethyl-cyclopropanecarbonyl)-pyrrolidine-2-carboxylic acid (1-cyano-cyclopropyl)-amide] |
| 510 pM | Cc1cc(-c2cnc(N)nc2)ccc1S(=O)(=O)[C@@H]1C[C@@H](C(=O)NC2(C#N)CC2)N(C(=O)C2(C(F)(F)F)CC2)C1 [Example 44, (2S,4R)-4-(4-(2-aminopyrimidin-5-yl)-2-methylphenylsulfonyl)-N-(1-cyanocyclopropyl)-1-(1-(trifluoromethyl)cyclopropanecarbonyl)pyrrolidine-2-carboxamide] |
| 497000 pM | N#CC1(NC(=O)[C@@H]2C[C@@H](S(=O)(=O)c3ccc(-n4cnc(Cl)n4)cc3)CN2C(=O)C2(C(F)(F)F)CC2)CC1 [Example 69, (2S,4R)-4-(4-(3-chloro-1H-1,2,4-triazol-1-yl)phenylsulfonyl)-N-(1-cyanocyclopropyl)-1-(1-(trifluoromethyl)cyclopropanecarbonyl)pyrrolidine-2-carboxamide] |
| 382 pM | N#CC1(NC(=O)[C@@H]2C[C@@H](S(=O)(=O)c3ccc(-n4ccnn4)cc3C(F)(F)F)CN2C(=O)C2(C(F)(F)F)CC2)CC1 [Example 54, (2S,4R)-4-(4-[1,2,3]Triazol-1-yl-2-trifluoromethyl-benzenesulfonyl)-1-(1-trifluoromethyl-cyclopropanecarbonyl)-pyrrolidine-2-carboxylic acid (1-cyano-cyclopropyl)-amide] |
| 1120 pM | Cc1cc(C(F)(F)F)nn1-c1ccc(S(=O)(=O)[C@@H]2C[C@@H](C(=O)NC3(C#N)CC3)N(C(=O)C3(C(F)(F)F)CC3)C2)c(C(F)(F)F)c1 [Example 23, (2S,4R)-4-[4-(5-Methyl-3-trifluoromethyl-pyrazol-1-yl)-2-trifluoromethyl-benzenesulfonyl]-1-(1-trifluoromethyl-cyclopropanecarbonyl)-pyrrolidine-2-carboxylic acid (1-cyano-cyclopropyl)-amide] |
| 1890 pM | N#CC1(NC(=O)[C@@H]2C[C@@H](S(=O)(=O)c3ccc(-c4ccccc4C=O)cc3)CN2C(=O)C2(C(F)(F)F)CC2)CC1 [Example 37, (2S,4R)—N-(1-cyanocyclopropyl)-4-(2′-formylbiphenyl-4-ylsulfonyl)-1-(1-(trifluoromethyl)cyclopropanecarbonyl)pyrrolidine-2-carboxamide] |
| 12600 pM | N#CC1(NC(=O)[C@@H]2C[C@@H](S(=O)(=O)c3ccc(-n4cncn4)cc3-n3cncn3)CN2C(=O)C2(C(F)(F)F)CC2)CC1 [Example 11, (2S,4R)—N-(1-cyanocyclopropyl)-4-(2,4-di(1H-1,2,4-triazol-1-yl)phenylsulfonyl)-1-(1-(trifluoromethyl)cyclopropanecarbonyl)pyrrolidine-2-carboxamide] |
| 860 pM | Cc1cc(-c2ccccc2C#N)ccc1S(=O)(=O)[C@@H]1C[C@@H](C(=O)NC2(C#N)CC2)N(C(=O)C2(C(F)(F)F)CC2)C1 [Example 41, (2S,4R)-4-(2′-cyano-3-methylbiphenyl-4-ylsulfonyl)-N-(1-cyanocyclopropyl)-1-(1-(trifluoromethyl)cyclopropanecarbonyl)pyrrolidine-2-carboxamide] |
| 483 pM | N#CC1(NC(=O)[C@@H]2C[C@@H](S(=O)(=O)c3ccc(-c4cnc(N)nc4)cc3)CN2C(=O)C2(C(F)(F)F)CC2)CC1 [Example 39, (2S,4R)-4-(4-(2-aminopyrimidin-5-yl)phenylsulfonyl)-N-(1-cyanocyclopropyl)-1-(1-(trifluoromethyl)cyclopropanecarbonyl)pyrrolidine-2-carboxamide] |
| 811 pM | Cc1cc(-c2ccccc2C=O)ccc1S(=O)(=O)[C@@H]1C[C@@H](C(=O)NC2(C#N)CC2)N(C(=O)C2(C(F)(F)F)CC2)C1 [Example 29, (2S,4R)—N-(1-cyanocyclopropyl)-4-(2′-formyl-3-methylbiphenyl-4-ylsulfonyl)-1-(1-(trifluoromethyl)cyclopropanecarbonyl)pyrrolidine-2-carboxamide] |
| 2600 pM | Cc1cc(C(F)(F)F)nn1-c1ccc(S(=O)(=O)[C@@H]2C[C@@H](C(=O)NC3(C#N)CC3)N(C(=O)C3(C(F)(F)F)CC3)C2)cc1 [Example 36, (2S,4R)—N-(1-cyanocyclopropyl)-4-(4-(5-methyl-3-(trifluoromethyl)-1H-pyrazol-1-yl)phenylsulfonyl)-1-(1-(trifluoromethyl)cyclopropanecarbonyl)pyrrolidine-2-carboxamide] |
| 592 pM | COc1ncc(-c2ccc(S(=O)(=O)[C@@H]3C[C@@H](C(=O)NC4(C#N)CC4)N(C(=O)C4(C(F)(F)F)CC4)C3)c(C)c2)cn1 [Example 62, (2S,4R)—N-(1-cyanocyclopropyl)-4-(4-(2-methoxypyrimidin-5-yl)-2-methylphenylsulfonyl)-1-(1-(trifluoromethyl)cyclopropanecarbonyl)pyrrolidine-2-carboxamide] |
| 686 pM | N#CC1(NC(=O)[C@@H]2C[C@@H](S(=O)(=O)c3ccc(-n4cncn4)cc3Cl)CN2C(=O)C2(C(F)(F)F)CC2)CC1 [Example 10, (2S,4R)-4-(2-chloro-4-(1H-1,2,4-triazol-1-yl)phenylsulfonyl)-N-(1-cyanocyclopropyl)-1-(1-(trifluoromethyl)cyclopropanecarbonyl)pyrrolidine-2-carboxamide] |
| 1570 pM | Cc1nc(C)n(-c2ccc(S(=O)(=O)[C@@H]3C[C@@H](C(=O)NC4(C#N)CC4)N(C(=O)C4(C(F)(F)F)CC4)C3)cc2)n1 [Example 33, (2S,4R)—N-(1-cyanocyclopropyl)-4-(4-(3,5-dimethyl-1H-1,2,4-triazol-1-yl)phenylsulfonyl)-1-(1-(trifluoromethyl)cyclopropanecarbonyl)pyrrolidine-2-carboxamide] |
| 610 pM | Cc1nc(C)n(-c2ccc(S(=O)(=O)[C@@H]3C[C@@H](C(=O)NC4(C#N)CC4)N(C(=O)C4(C(F)(F)F)CC4)C3)c(Cl)c2)n1 [Example 15, (2S,4R)-4-(2-chloro-4-(3,5-dimethyl-1H-1,2,4-triazol-1-yl)phenylsulfonyl)-N-(1-cyanocyclopropyl)-1-(1-(trifluoromethyl)cyclopropanecarbonyl)pyrrolidine-2-carboxamide] |

| Structure (SMILES) | IC50 |
| --- | --- |
| Cc1nnn(-c2ccc(S(=O)(=O)[C@@H]3C[C@@H](C(=O)NC4(C#N)CC4)N(C(=O)C4(C(F)(F)F)CC4)C3)c(Cl)c2)n1 [Example 8, (2S,4R)-4-(2-chloro-4-(5-methyl-2H-tetrazol-2-yl)phenylsulfonyl)-N-(1-cyanocyclopropyl)-1-(1-(trifluoromethyl)cyclopropanecarbonyl)pyrrolidine-2-carboxamide] | 533 pM |
